Test: In vitro binding affinity towards 5-hydroxytryptamine 1D receptor beta by using [3H]5-HT as radioligand

In the case of `CCCNC1CCc2cccc(OS(=O)(=O)C(F)(F)F)c2C1` (stereo unspecified) [Trifluoro-methanesulfonic acid 7-propylamino-5,6,7,8-tetrahydro-naphthalen-1-yl ester], the Ki is reported as 169 nM.
